The test system of data set [1] is normal human fibroblast MRC5. Put plainly: CellTitre Glo in vitro cytotoxicity, MRC5. It is filed as cell-based. The protocol: (§1) In vitro cytotoxicity of AMS-related structures was also assessed to determine the modifications of AMS that alter cytotoxicity. The in vitro cytotoxicity of each of these AMS-related structures was tested against both hepatocellular carcinoma HepG2 and normal human fibroblast MRC5 cell lines using a CellTitre Glo® assay (Promega, Madison, WI) The modifications and results are provided in Table 1 below.

A further data set concerns Jurkat T cells. Put plainly: Jurkat viability with prodrug plus supernatant from CPG2-secreting HEK293T cells. Format: cell-based, human. The procedure: (§2) The in vitro cytotoxicity of AMS (structure 1c) and its prodrug variant (structure 1a) was tested against a variety of cell lines using a CellTitre Glo® assay (Promega, Madison, WI). […] Moreover, co-treatment with the prodrug and supernatant from CPG2-transfected HEK293T cells (see Example 3) led to cytotoxicity approaching that of the free drug (50 nM), consistent with CPG2-mediated cleavage of the prodrug to release the active parent drug. […] In contrast, AMS prodrug 1a was not activated by HEK293T cells expressing CPG intracellularly, which likely attributed to poor cell-penetrance of the prodrug due to the free bis-anionic gluatamate moiety.
Jurkat T cells were exposed to increasing concentrations of AMS (circle) or Pro-AMS with media alone (triangle) or supernatant from CPG2-secreting HEK293T cells (square). Cell viability was measured at 48 hours by CellTitre-Glo® luminescence assay.
Jurkat T cells were exposed to increasing concentrations of ZD2767P with media alone (triangle) or supernatant from CPG2-secreting HEK293T cells (square). Cell viability was measured at 48 hours by CellTitre-Glo® luminescence assay.

In data set [2] the test system is hepatocellular carcinoma HepG2. Put plainly: CellTitre Glo in vitro cytotoxicity, HepG2. Format: cell-based. The procedure:
This example describes the synthesis of exemplary prodrugs based on sulfamoyladenosine (AMS) (structure 1c) (FIG. 2C) for cleavage by the bacterial hydrolase enzyme CPG2. AMS is a close analog of nucleocidin and a potent cytotoxic molecule (HepG2 IC50=9 nM). […] Based on these SAR data, AMS prodrug 1a (“P-AMS”; FIG. 2C) was synthesized from 2′,3′-O-isopropylidene-5′-O-TBS-adenosine (structure 3, FIG. 2D) by 6-N-acylation with CDI-activated bis-O-t-Bu-glutamate (30%), desilylation (TBAF), sulfamoylation (H2NSO2C1, DMA), and acetonide hydrolysis (TFA, H2O, 15% over 3 steps). Two alternative N-sulfamate-linked prodrugs (not shown) attached via CO-PAB-CO and TML-CO linkers were synthesized (FIG. 2B). A more detailed discussion of the P-AMS synthesis and the synthesis of the N-sulfamate-linked prodrug attached via a TML-CO linker (“Trimethyllock-AMS”) is provided below in this example. As an alternative cytotoxic using a known anticancer therapeutic, the mustard prodrug ZD2767P (structure 2a, FIG. 2C) was also synthesized as previously reported (Springer et al., J Med Chem. 37(15):2361-70(1994) and Niculescu-Duvaz et al., Tetrahedron Lett. 46(40):6919-22 (2005)).
as §1

In a further data set the test system is Jurkat (T cell). Put plainly: CellTitre Glo in vitro cytotoxicity, Jurkat. Format: cell-based, human.
For another data set, the system named is primary T-cells. In words: CellTitre Glo in vitro cytotoxicity, primary T cells. Format: cell-based, human.
The subject of data set [3] is non-small cell lung carcinoma cell line PC9. Put plainly: CellTitre-Glo viability, PC9. Format: cell-based, human. The settings on record: PC9, 48 hours. The procedure:
FIG. 14 provides exemplary data showing that Human T cells, but not cancer cells, are resistant to Erlotinib. (A) Human Jurkat T cells (red circle) and human non-small cell lung carcinoma cell lines PC9 (black square) and HCC827 (blue triangle) were treated with increasing concentrations of the receptor tyrosine kinase inhibitor Erlotinib. […] Cell viability was measured at 48 hours by CellTitre-Glo® luminescence.
FIG. 14 provides exemplary data showing that Human T cells, but not cancer cells, are resistant to Erlotinib. Human Jurkat T cells, primary T cells and human non-small cell lung carcinoma cell lines PC9 and HCC827 were treated with increasing concentrations of the receptor tyrosine kinase inhibitor Erlotinib. […] PC9 cells were incubated in the presence of Erlotinib, P-Erlotinib, or P-Erlotinib in the presence of purified CPG2. Cell viability was measured at 48 hours by CellTitre-Glo® luminescence.

In data set [4] the test system is non-small cell lung carcinoma cell line HCC827. In words: CellTitre-Glo viability, HCC827. It is filed as cell-based, human. The settings on record: HCC827, 48 hours.
Protocol: Human Jurkat T cells, primary T cells and human non-small cell lung carcinoma cell lines PC9 and HCC827 were treated with increasing concentrations of the receptor tyrosine kinase inhibitor Erlotinib. […] Cell viability was measured at 48 hours by CellTitre-Glo® luminescence.
Data set [5] can be described thus: Cell permeability in CACO-2 cells. Format: in vitro ADME, human. The settings on record: human. On the technique in general: Passage across Caco-2 layers is used to estimate intestinal permeability.
A further data set deals with HEK293T (kidney). Put plainly: CellTitre Glo in vitro cytotoxicity, HEK293T. It is filed as cell-based, human.
For a further data set, the system named is HL 60 (leukemia). In words: CellTitre Glo in vitro cytotoxicity, HL 60. It is filed as cell-based. The procedure:
as §2

The test system of data set [6] is myeloid leukemia cell line SET2. In words: CellTitre Glo in vitro cytotoxicity, SET2. Format: cell-based. The settings on record: Set2; prodrug vs AMS.
A further data set has as its system SET2 cells. Put plainly: SET2 viability with prodrug plus recombinant enzyme or enzyme-containing supernatant. The settings on record: Beta-lactamase supernatant; control media did not. Format: cell-based. The procedure: Recombinant CPG2 protein was initially synthesized, purified (FIGS. 18A and 18B), and incubated with increasing concentrations of prodrug in a glutamate release assay (FIG. 17C). Mass spectrometry was used to determine that the glutamate moiety was released from all of the glutamate prodrugs. The in vitro cytotoxicity of the prodrugs (FIG. 17B) were tested against the myeloid leukemia cell line SET2 using a CellTitre Glo® assay (Promega, Madison, WI).
SET2 cells were exposed to increasing concentrations of AMS (square) or glut-AMS with media alone (− control, triangle) or supernatant from CPG2-secreting HEK293t cells (circle). Cell viability was measured by CellTitre-Glo® luminescence assay.
Thus, antigen-dependent expansion of SEAKER T cells results in increased output of enzyme into the extracellular milieu.
To determine to respective enzyme output of the Beta-lactamase constructs relative to the previous CPG2 constructs, a quantitative sandwich ELISA was used to determine the concentration (ng/mL) of purified recombinant CPG2, and a quantitative nitrocefin assay was used to determine the concentration (ng/mL) of purified recombinant Beta-lactamase (FIG. 25A). Cell viability was measured by CellTitre-Glo® luminescence in the presence of prodrug (glut-AMS or ceph-AMS) and varying concentrations of purified recombinant CPG2 or Beta-lactamase (FIG. 25B).

The mark [7] stands for this setting: Caco-2, with Ver (so in the source), concentration not stated, + Ver.

The values that follow come from patent US12178830B2, “Compositions and methods for adoptive cell therapy for cancer” (MEMORIAL SLOAN KETTERING CANCER CENTER, priority 2017, dated 2024).

Where “and” joins values, the source holds several entries; their conditions need not be identical. Identical values can stand only once. Like-named read-outs stand apart in the source and are kept apart here.

With `Nc1ncnc2c1nc(Cl)n2[C@@H]1O[C@H](COS(N)(=O)=O)[C@@H](O)[C@H]1O` [8-Cl-AMS], the IC50 (usually the concentration that inhibits the measured activity by half) in data set [1] was 3.2 µM and 3.51 µM.
Turning to `O=C(O)CC[C@H](NC(=O)Oc1ccc(N(CCI)CCI)cc1)C(=O)O` [ZD2767P], in the data set with Jurkat T cells (increasing prodrug, 48 hours, supernatant from CPG2-secreting HEK293T cells), the “cell viability with prodrug and CPG2 supernatant” value is on record as “significant decrease in cell viability”. In addition, in the data set on Jurkat T cells (with CPG2 supernatant), the IC50 came to 1.7 µM.
In the case of `Nc1nc2c(ncn2[C@@H]2O[C@H](COS(N)(=O)=O)[C@@H](O)[C@H]2O)c(=O)[nH]1` [GMS], the IC50 in data set [2] (read-out: IC50, HepG2) is greater than 500 µM; in data set [1] it was greater than 500 µM.
On to `NS(=O)(=O)OC[C@H]1O[C@@H](n2cnc3c(O)ncnc32)[C@H](O)[C@@H]1O` [IMS], for which the 50% inhibitory concentration (IC50) in data set [2] (read-out: IC50, HepG2) is greater than 500 µM; in data set [1], greater than 500 µM.
With `CNc1ncnc2c1ncn2[C@@H]1O[C@H](COS(N)(=O)=O)[C@@H](O)[C@H]1O` [6-NHMe-AMS], the concentration for half-maximal inhibition (IC50) was determined as 1.8 µM in data set [2] (read-out: IC50, HepG2) and 0.9 µM in [1].
For `Nc1nc(-c2ccccc2)nc2c1ncn2[C@@H]1O[C@H](COS(N)(=O)=O)[C@@H](O)[C@H]1O` [2-phenyl-AMS], the half-maximal inhibitory concentration (IC50) is roughly 500 µM in data set [2] (read-out: IC50, HepG2) and greater than 500 µM in data set [1].
On to `Nc1ccn([C@@H]2O[C@H](COS(N)(=O)=O)[C@@H](O)[C@H]2O)c(=O)n1` [CMS], for which the half-inhibitory concentration (IC50) in data set [2] (read-out: IC50, HepG2) was greater than 500 µM; in [1], greater than 500 µM.
Regarding `Cc1cn([C@H]2C[C@H](O)[C@@H](COS(N)(=O)=O)O2)c(=O)[nH]c1=O` [TMS], the IC50 in [2] (read-out: IC50, HepG2) was greater than 500 µM; in [1], greater than 500 µM.
Consider `COc1ncnc2c1ncn2[C@@H]1O[C@H](COS(N)(=O)=O)[C@@H](O)[C@H]1O` [6-OMe-AMS], for which the IC50 in data set [2] (read-out: IC50, HepG2) is 141 µM; in data set [1], 129 µM.
For `C#Cc1cccc(Nc2ncnc3cc(OCCOC)c(OCCOC)cc23)c1` [Erlotinib, reference compound], the “response to increasing concentrations” value in the data set with Jurkat (T cell) (T cell lines (Jurkat), 48 hours) is “exhibited resistance”; in the data set with primary T-cells (primary T cells), “exhibited resistance”; in [3] it was “significant cell death”; in [4], “significant cell death”.
As for `Nc1nc(Nc2ccccc2)nc2c1ncn2[C@@H]1O[C@H](COS(N)(=O)=O)[C@@H](O)[C@H]1O` [2-NHPh-AMS], the IC50 in [2] (read-out: IC50, HepG2) was greater than 500 µM; in [1], 124 µM.
For `CN(C)C(=O)C(CCN1CCC(O)(c2ccc(Cl)cc2)CC1)(c1ccccc1)c1ccccc1` [Loperamide], in data set [5] (setting [7]), the Papp A→B (as a rule, the apparent permeability from the apical to the basolateral side of a cell layer) was 10.5 ± 1.5 ×10⁻⁶ cm/s and the Papp B→A (commonly how fast a substance crosses the layer from the basolateral side) is 7.8 ± 0.5 ×10⁻⁶ cm/s. Moreover, in data set [5] (Caco-2), the Papp A→B was 2.2 ± 0.3 ×10⁻⁶ cm/s and the basolateral-to-apical permeability (Papp B→A) is 16.9 ± 1.1 ×10⁻⁶ cm/s.
As to `Nc1ncnc2c1ncn2[C@@H]1O[C@H](COS(N)(=O)=O)[C@@H](O)[C@H]1O` [AMS], the 50% inhibitory concentration (IC50) in [2] (read-out: HepG2 IC50) is 0.009 µM; in data set [1], 0.03 µM; in the data set on HEK293T (kidney) (HEK293T, read-out: IC50), 0.666 µM; with HL 60 (leukemia) it was 0.07 µM; in the data set on Jurkat (T cell) (Jurkat, read-out: IC50), 0.018 µM; in the data set with primary T-cells (primary T-cells, read-out: IC50), 0.066 µM.
Regarding `NS(=O)(=O)OC[C@H]1O[C@@H](n2cnc3c(NC4CC4)ncnc32)[C@H](O)[C@@H]1O` [6-NCyp-AMS], the IC50 in [2] (read-out: IC50, HepG2) came to 10.9 µM; in data set [1], 7.2 µM.
The like results for `NS(=O)(=O)OC[C@H]1O[C@@H](n2ccc(=O)[nH]c2=O)[C@H](O)[C@@H]1O` [UMS] were, in that order, greater than 500 µM and greater than 500 µM.
For `Nc1ncnc2c1ncn2[C@@H]1O[C@H](CNS(N)(=O)=O)[C@@H](O)[C@H]1O` [AMSN], the IC50 in [2] (read-out: IC50, HepG2) stood at 0.36 µM; in data set [1] it was 0.39 µM.
`Nc1nc(N)c2ncn([C@@H]3O[C@H](COS(N)(=O)=O)[C@@H](O)[C@H]3O)c2n1` [2-NH2-AMS]: the concentration for half-maximal inhibition (IC50) was < 1 µM and 1.75 µM in data set [2] (read-out: IC50, HepG2); < 1 µM and 1.17 µM in data set [1].
As to `CN(C)c1ncnc2c1ncn2[C@@H]1O[C@H](COS(N)(=O)=O)[C@@H](O)[C@H]1O` [6-NMe2-AMS], the IC50 was greater than 500 µM in data set [2] (read-out: IC50, HepG2) and greater than 500 µM in [1].
For the molecule `Nc1ncnc2c1ncn2[C@@H]1O[C@H](COS(=O)(=O)NCC2=C(C(=O)O)N3C(=O)[C@@H](NC(=O)Cc4cccs4)[C@H]3SC2)[C@@H](O)[C@H]1O` [ceph-AMS], the “Selective Index” value in the data set on HEK293T (kidney) (HEK293t, prodrug vs AMS) was roughly 3; with primary T-cells (Human T cell, prodrug vs AMS), greater than 6; in [6], roughly 64. Also, the “SET2 cell viability with prodrug and Beta-lactamase supernatant” value in the data set on SET2 cells is “significant decrease in cell viability”.
With `Nc1ncnc2c1ncn2[C@H]1C[C@H](O)[C@@H](COS(N)(=O)=O)O1` [2′-deoxy-AMS], the IC50 in data set [2] (read-out: IC50, HepG2) is < 1 µM and 0.55 µM.
Turning to `CCCc1nc2c(N)ncnc2n1[C@@H]1O[C@H](COS(N)(=O)=O)[C@@H](O)[C@H]1O` [8-propyl-AMS], the concentration for half-maximal inhibition (IC50) was greater than 500 µM in [2] (read-out: IC50, HepG2) and greater than 500 µM in [1].
